Measured values: patent US9670482B2, “Multispecific peptides” (BICYCLE THERAPEUTICS LIMITED, priority 2009, dated 2017)
Each block holds one molecule with its values, some of them ahead of it. Residues, ends and D or L forms follow the SMILES beside them.

Assays:
Kallikrein = molecular target: T1, Kallikrein (Homo sapiens, UniProt P03952); assay: Kallikrein assays (Z-Phe-Arg-amc substrate); type: biochemical; settings: IC50 for inhibition of kallikrein activity, 0.1 nM kallikrein, 100 μM substrate, 30° C.
T1 construct: purchased Sigma Aldrich
T1 sequence (P03952 20-638): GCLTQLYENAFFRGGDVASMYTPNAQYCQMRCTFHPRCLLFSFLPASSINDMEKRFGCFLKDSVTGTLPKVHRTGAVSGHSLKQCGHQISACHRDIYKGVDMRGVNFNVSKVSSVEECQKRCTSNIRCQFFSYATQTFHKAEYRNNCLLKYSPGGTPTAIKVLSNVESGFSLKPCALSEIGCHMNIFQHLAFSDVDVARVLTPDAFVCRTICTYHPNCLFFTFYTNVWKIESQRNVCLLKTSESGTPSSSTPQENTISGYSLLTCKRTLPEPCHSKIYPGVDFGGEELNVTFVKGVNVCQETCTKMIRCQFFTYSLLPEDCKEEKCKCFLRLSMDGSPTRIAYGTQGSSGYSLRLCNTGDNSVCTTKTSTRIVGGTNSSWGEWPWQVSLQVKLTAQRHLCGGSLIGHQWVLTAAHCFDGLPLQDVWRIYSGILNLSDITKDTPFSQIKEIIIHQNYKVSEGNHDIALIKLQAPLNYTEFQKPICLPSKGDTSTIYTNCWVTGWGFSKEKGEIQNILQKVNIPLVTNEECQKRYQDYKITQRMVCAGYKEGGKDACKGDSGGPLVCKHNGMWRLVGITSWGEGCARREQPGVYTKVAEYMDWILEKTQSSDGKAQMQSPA
Procedure: Enzymes were purchased from Sigma Aldrich and substrates from Bachem A G. The assay buffer is composed of 10 mM Tris pH 7.4, 150 mM NaCl, 10 mM MgCl2, 1 mM CaCl2, 0.1% BSA, 0.01% Triton X100 and 5% DMSO. Enzymes are incubated with inhibitors for 30 minutes at RT prior to addition of substrate. All experiments were recorded at 30° C. for 90 minutes.
Assays were performed on a BMG Pherastar plate reader at wavelengths of exc/em 350/450 nm. Kallikrein was bought as a solution of 1080 μg/mL and diluted to a working concentration of 0.3 nM in assay buffer. Substrate Z-Phe-Arg-amc was solubilised at the stock concentration of 10 mM in DMSO and diluted to a working concentration of 300 μM with assay buffer. Inhibitors were solubilised in assay buffer to a stock concentration of 60 μM. 50 μL of each reagent is introduced in wells for a final volume of 150 μL per well. Final concentration of kallikrein in assay is 0.1 nM and substrate is 100 μM.
Final concentrations of inhibitors were: 0.5 nM, 1 nM, 2 nM, 5 nM, 8 nM, 10 nM, 20 nM, 50 nM, 80 nM, 100 nM, 200 nM, 500 nM, 800 nM, 1 μM, 2 μM, 5 μM, 8 μM, 10 μM and 20 μM. The initial rate of the reaction is obtained by plotting fluorescence=f (time) data and by fitting a linear trendline for each concentration of inhibitor. The inhibition curves are obtained by plotting initial rate=f ([I]) and IC50 values can be evaluated.

[1] = molecular target: bovine serum albumin (BSA) (Bos taurus, UniProt P02769); assay: Fluorescence anisotropy titration with BSA; settings: for binding to BSA (change in anisotropy): titration with BSA, FIG. 4
Sequence of bovine serum albumin (BSA) (P02769 25-607): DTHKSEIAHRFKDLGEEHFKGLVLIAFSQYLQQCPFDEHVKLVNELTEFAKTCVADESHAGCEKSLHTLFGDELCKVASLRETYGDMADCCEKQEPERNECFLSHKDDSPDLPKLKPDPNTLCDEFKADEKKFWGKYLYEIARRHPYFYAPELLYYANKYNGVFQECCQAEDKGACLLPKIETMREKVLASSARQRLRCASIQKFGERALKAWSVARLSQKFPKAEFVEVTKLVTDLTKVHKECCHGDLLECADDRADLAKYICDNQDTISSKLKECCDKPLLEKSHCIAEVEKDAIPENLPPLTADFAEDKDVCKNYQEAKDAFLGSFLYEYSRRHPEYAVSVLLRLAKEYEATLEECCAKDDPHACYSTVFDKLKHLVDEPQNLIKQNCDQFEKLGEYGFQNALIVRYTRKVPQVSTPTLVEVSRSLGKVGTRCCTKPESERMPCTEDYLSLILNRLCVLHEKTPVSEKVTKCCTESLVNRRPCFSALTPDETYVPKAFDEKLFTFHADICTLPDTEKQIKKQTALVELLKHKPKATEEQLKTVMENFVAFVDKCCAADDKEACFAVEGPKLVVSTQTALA
Excerpt: For determining the affinity constant (Kd) of a fluorophore to target protein, we chose fluorescence anisotropy titrations.
Excitation was specific for coumarin (328 nm), and emission at 393 nm.
To determine whether a neighbouring group (here, Gly) on Fmoc affects binding to BSA, a similar experiment was run with Fmoc-Gly-OH (Nova Biochem). The intrinsic fluorescing properties of Fmoc were used for the anisotropy experiments.
To determine whether a neighbouring hydrophobic bulky group has an enhancing or adverse effect on BSA binding, Fmoc-Phe-OH was tested as above.
The solid phase resin employed was PAL-PEG-PS from Applied Biosystems. […] All peptides were capped with an N-terminal Fmoc, and a C-terminal amide (NH2). After cleavage, peptides were lyophilised, and solubilised in 5 mL of DMF. 100 μl of this was loaded onto an analytical C18 column using a Waters HPLC, using methanol and water (both in the presence of 0.1% TFA) as solvents. […] The peptide concentration in the cuvette was 200 nM.
Excitation was at 299 nm (to minimise Trp absorption), and emission at 320 nm. Slit widths were at 5 and 12 nm, respectively.
Peptide concentrations were estimated by the absorbance at 299 nm, using the extinction coefficient of 4700/M/cm. Excitation was at 299 nm, and emission was set to 320 nm, at slit widths of 5 and 12 nm, respectively.

Cathepsin G = molecular target: T2, Cathepsin G (Homo sapiens, UniProt P08311); assay: Peptide conjugate digestion with Cathepsin G; type: in vitro ADME; design: key to the marks not given beside the values; settings: 37° C. for 1 hr
T2 sequence (P08311 21-244): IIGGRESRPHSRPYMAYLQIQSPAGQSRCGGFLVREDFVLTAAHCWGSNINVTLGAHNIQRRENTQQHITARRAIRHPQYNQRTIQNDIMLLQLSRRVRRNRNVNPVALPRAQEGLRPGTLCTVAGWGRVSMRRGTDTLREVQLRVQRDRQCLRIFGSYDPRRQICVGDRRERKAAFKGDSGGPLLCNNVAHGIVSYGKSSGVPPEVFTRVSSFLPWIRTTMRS
Procedure: (§1) Linear peptides (PK15 and CG4L1-PK15L1) were first treated with iodoacetamide prior to digestion studies. The peptides (ca 3-4 mg) were purified by HPLC (semi-prep Proteo column as described in general methods), and the HPLC fraction (ca 3 ml) was neutralised with an equal volume of 50 mM ammonium bicarbonate. […] The reaction mixture was concentrated (rotary evaporator) and re-purified by HPLC as above.
(§2) Peptides (linear and conjugates) were dissolved in water at a concentration of 1 mg/ml, giving an effective concentration of −0.5 mM stock solutions. 2 μl of peptide conjugates (˜30 μM in reactions depending on actual molecular weight) where dissolved in reaction buffer (see below) in a total reaction volume of 30 μl, followed by the protease, and samples were incubated at 37° C. for 1 hr. 10 μl aliquots were quenched into 20 μl of 10% dichloroacetic acid in MeCN/H2O (1:1) and stored at −20° C. for 30 minutes, centrifuged at 4° C. (13000 rpm) for 5 minutes and then spotted onto MALDI-TOF mass spectrometer plate for analysis.
(§3) All reactions at 37° C. Cathepsin G and kalikrein reactions were carried out in 10 mM Tris pH 7.4, 150 mM NaCl, 10 mM MgCl2, 1 mM CaCl2, 0.1% BSA, 0.01% Triton X100, 5% DMSO. Chymotrypsin reactions were carried out in 100 mM Tris pH 7.4, 10 mM CaCl2. Pronase and proteinase K reactions were carried out in 100 mM Tris pH 7.4, 0.5% SDS. Subtilisin reactions were carried out in 50 mM KH2PO4 pH 7.5. Trypsin reactions were carried out in 67 mM sodium phosphate pH 7.6. Reaction conditions with serum involve dissolving the peptide in 1×PBS (total volume 24 μl) and 6 μl of human serum added to the reaction.

Kalikrein = Kalikrein (Homo sapiens, UniProt P03952); assay: Peptide conjugate digestion with Kalikrein; type: in vitro ADME; design: digestion with Kalikrein: key to the marks not given beside the values; settings: 37° C. for 1 hr
Sequence of Kalikrein (P03952 20-638): as the sequence (P03952 20-638) above
Procedure: as §1, §2, §3

Pronase = assay: Peptide conjugate digestion with Pronase; type: in vitro ADME; design: key to the marks not given beside the values; settings: 37° C. for 1 hr
Procedure: as §1, §2, §3

Chymotrypsin = assay: Peptide conjugate digestion with Chymotrypsin; type: in vitro ADME; settings: 37° C. for 1 hr
Procedure: as §1, §2, §3

Subtilisin = assay: Peptide conjugate digestion with Subtilisin; type: in vitro ADME; settings: 37° C. for 1 hr
Procedure: as §1, §2, §3

Trypsin = assay: Peptide conjugate digestion with Trypsin; type: in vitro ADME; settings: 37° C. for 1 hr
Procedure: as §1, §2, §3

SMILES: CC[C@H](C)[C@@H]1NC(=O)[C@@H]2CSCc3cc4cc(c3)CSC[C@H](NC(=O)[C@H](CC(N)=O)NC(=O)[C@H](CCCNC(=N)N)NC(=O)[C@H](Cc3ccccc3)NC(=O)[C@H](CCCNC(=N)N)NC(=O)[C@H](CC(=O)O)NC(=O)[C@H](CO)NC(=O)[C@H](CSC4)NC(=O)[C@H](Cc3ccccc3)NC(=O)CNC(=O)[C@H](CC(C)C)NC(=O)[C@H](CC(=O)O)NC(=O)[C@H](Cc3ccccc3)NC1=O)C(=O)N1CCC[C@H]1C(=O)N[C@@H](C)C(=O)N[C@@H](CC(=O)O)C(=O)N[C@@H](CCC(=O)O)C(=O)N[C@@H](C)C(=O)N[C@@H](CC(C)C)C(=O)N2 [CG4L1-PK15L1-PK15L2 tricyclic] (HELM PEPTIDE1{A.D.E.A.L.C.I.F.D.L.G.F.C.S.D.R.F.R.N.C.P}|CHEM1{[c1c(C[*:1])cc(C[*:3])cc1C[*:2]]}$PEPTIDE1,CHEM1,6:R3-1:R1|PEPTIDE1,CHEM1,13:R3-1:R2|PEPTIDE1,CHEM1,20:R3-1:R3|PEPTIDE1,PEPTIDE1,1:R1-21:R2$$$V2.0)
- IC50 (Kallikrein): 15 µM

SMILES: NC(=O)[C@H](CC(=O)O)NC(=O)CNC(=O)[C@H](CO)NC(=O)CNC(=O)[C@H](Cc1ccccc1)NC(=O)OCC1c2ccccc2-c2ccccc21 [Fmoc-FGSGD-NH2] (HELM PEPTIDE1{[O=C(OCC1c2ccccc2-c2ccccc21)[*:2]].F.G.S.G.D.[am]}$$$$V2.0)
- fold tighter binding to BSA than the glycine variant Fmoc-GGSGD-NH2 [1]: 8 fold

SMILES: O=C(O)CNC(=O)OCC1c2ccccc2-c2ccccc21 [Fmoc-Gly-OH]
- Kd [1]: 420 nM

SMILES: COc1ccc2c(CC(=O)NCCCC[C@H](NC(=O)OCC3c4ccccc4-c4ccccc43)C(=O)O)cc(=O)oc2c1 [Fmoc-Lys-Mca]
- Kd [1]: 340 nM

SMILES: CC[C@H](C)[C@@H]1NC(=O)[C@@H]2CSCc3cc(cc(c3)CSC[C@@H](C(=O)NCC(=O)O)NC(=O)[C@H](Cc3ccccc3)NC(=O)CNC(=O)[C@H](CC(C)C)NC(=O)[C@H](CC(=O)O)NC(=O)[C@H](Cc3ccccc3)NC1=O)CSC[C@H](NC(=O)[C@H](C)N)C(=O)N[C@@H](CO)C(=O)N[C@@H](CC(=O)O)C(=O)N[C@@H](CCCNC(=N)N)C(=O)N[C@@H](Cc1ccccc1)C(=O)N[C@@H](CCCNC(=N)N)C(=O)N[C@@H](CC(N)=O)C(=O)N2 [PK15L1-CG4L1 bicyclic] (HELM PEPTIDE1{A.C.S.D.R.F.R.N.C.I.F.D.L.G.F.C.G}|CHEM1{[c1c(C[*:1])cc(C[*:3])cc1C[*:2]]}$PEPTIDE1,CHEM1,2:R3-1:R1|PEPTIDE1,CHEM1,9:R3-1:R2|PEPTIDE1,CHEM1,16:R3-1:R3$$$V2.0)
- IC50 (Kallikrein): 0.2 µM

SMILES: CC[C@H](C)[C@@H]1NC(=O)[C@@H](NC(=O)[C@H](CC(C)C)NC(=O)[C@H](C)N)CSCc2cc3cc(c2)CSC[C@@H](C(=O)N2CCC[C@H]2C(=O)N[C@@H](C)C(=O)N[C@@H](CC(=O)O)C(=O)N[C@@H](CCC(=O)O)C(=O)O)NC(=O)[C@H](CC(N)=O)NC(=O)[C@H](CCCNC(=N)N)NC(=O)[C@H](Cc2ccccc2)NC(=O)[C@H](CCCNC(=N)N)NC(=O)[C@H](CC(=O)O)NC(=O)[C@H](CO)NC(=O)[C@H](CSC3)NC(=O)[C@H](Cc2ccccc2)NC(=O)CNC(=O)[C@H](CC(C)C)NC(=O)[C@H](CC(=O)O)NC(=O)[C@H](Cc2ccccc2)NC1=O [X-CG4L1-PK15L1-Y bicyclic] (HELM PEPTIDE1{A.L.C.I.F.D.L.G.F.C.S.D.R.F.R.N.C.P.A.D.E}|CHEM1{[c1c(C[*:1])cc(C[*:3])cc1C[*:2]]}$PEPTIDE1,CHEM1,3:R3-1:R1|PEPTIDE1,CHEM1,10:R3-1:R2|PEPTIDE1,CHEM1,17:R3-1:R3$$$V2.0)
- digestion with Cathepsin G (Cathepsin G; 0.01 μg enzyme per reaction): +++
- digestion with Cathepsin G (Cathepsin G; 0.1 μg enzyme per reaction): +++
- digestion with Kalikrein (Kalikrein; 0.01 μg enzyme per reaction): +++
- digestion with Kalikrein (Kalikrein; 0.1 μg enzyme per reaction): +++
- digestion with Pronase (Pronase; 0.01 μg enzyme per reaction): +++
- digestion with Pronase (Pronase; 0.1 μg enzyme per reaction): +++
- digestion with Pronase (Pronase; 1 μg enzyme per reaction): +++
- digestion with Chymotrypsin (Chymotrypsin; 0.01 μg enzyme per reaction): +++
- digestion with Chymotrypsin (Chymotrypsin; 10 μg enzyme per reaction): −
- digestion with Subtilisin (Subtilisin; 0.009 μg enzyme per reaction): +++
- digestion with Subtilisin (Subtilisin; 9 μg enzyme per reaction): −
- IC50 (Kallikrein): 15 µM
- digestion with Trypsin (Trypsin; 0.01 μg enzyme per reaction): +++
- digestion with Trypsin (Trypsin; 10 μg enzyme per reaction): −

More lines, now with the values ahead:

- Kd [1]: ~60 nM
- fold tighter binding to BSA than Fmoc-FGSGD-NH2 [1]: 3 fold
SMILES: NC(=O)[C@H](CC(=O)O)NC(=O)CNC(=O)[C@H](CO)NC(=O)CNC(=O)[C@H](Cc1c[nH]c2ccccc12)NC(=O)OCC1c2ccccc2-c2ccccc21 [Fmoc-WGSGD-NH2] (HELM PEPTIDE1{[O=C(OCC1c2ccccc2-c2ccccc21)[*:2]].W.G.S.G.D.[am]}$$$$V2.0)

- binding to BSA (change in anisotropy) [1]: no binding
SMILES: COc1ccc2c(CC(=O)NCCCCC(N)C(=O)O)cc(=O)oc2c1 (centres unmarked) [Lys-Mca]

- binding to BSA (change in anisotropy) [1]: did not bind BSA
SMILES: COc1ccc2c(CC(=O)O)cc(=O)oc2c1 [Mca-OH]
